Results on three compounds are retold here after patent publication US7674586B2, “Methods of identifying modulators of L-glutamate-gated chloride channel proteins from Rhipicephalus sanguineus” (Merial Limited, priority 2000, dated 2010).

Experiment [1] concerns RsGluCl2. In words: Two-microelectrode voltage clamp of Xenopus oocytes injected with RsGluCl2 RNA. In kind it is cell-based, Rhipicephalus sanguineus. Conditions: for channel activation / current in response (qualitative): RsGluCl2 expressed in Xenopus oocytes as a single functional channel. The protocol:
(§1) Xenopus laevis oocytes were prepared and injected using standard methods previously described [Arena, J. P., Liu, K. K., Paress, P. S. & Cully, D. P. Mol. Pharmacol. 40, 368-374 (1991); Arena, J. P., Liu, K. K., Paress, P. S., Schaeffer, J. M. & Cully, D. F., Mol. Brain. Res. 15, 339-348 (1992)]. Adult female Xenopus laevis were anesthetized with 0.17% tricaine methanesulfonate and the ovaries were surgically removed and placed in a solution consisting of (mM): NaCl 82.5, KCl 2, MgCl2 1, HEPES 5, NaPyruvate 2.5, Penicillin G. 100,000 units/L, Streptomycin Sulfate 1000 mg/L, pH 7.5 (Mod. OR-2). Ovarian lobes were broken open, rinsed several times in Mod. OR-2, and incubated in 0.2% collagenase (Sigma, Type1) in Mod. OR-2 at room temperature with gentle shaking. After 1 hour the collagenase solution was renewed and the oocytes were incubated for an additional 30-90 min until approximately 50% of the oocytes were released from the ovaries. Stage V and VI oocytes were selected and placed in media containing (mM): NaCl 96, KCl 2, MgCl2 1, CaCl2 1.8, HEPES 5, NaPyruvate 2.5, theophylline 0.5, gentamicin […], pH 7.5 (ND-96) for 16-24 hours before injection. Oocytes were injected with 50 nl of Dv8, Dv9, RsGluCl1 or RsGluCl2 RNA at a concentration of 0.2 mg/ml. Oocytes were incubated at 18° C. for 1-6 days in ND-96 before recording.
Recordings were made at room temperature in modified ND-96 consisting of (mM: NaCl 96, MgCl2 1, CaCl2 0.1, BaCl2 3.5, HEPES 5, pH 7.5. Oocytes were voltage clamped using a Dagan CA1 two microelectrode amplifier (Dagan Corporation, Minneapolis, Minn.) interfaced to a Macintosh 7100/80 computer. The current passing electrode was filled with 0.7 M KCl, 1.7 M KCitrate, and the voltage recording electrode was filled with 1 M KCl. Throughout the experiment oocytes were superfused with modified ND-96 (control solution) or with ND-96 containing potential channel activators and blockers at a rate of approximately 3 ml/min. Data were acquired at 100 Hz and filtered at 33.3 Hz using Pulse software from HEKA Elektronik (Lambrecht, Germany). […]

The subject of experiment [2] is RsGluCl1 (T12). Kind of experiment: Two-microelectrode voltage clamp of Xenopus oocytes injected with RsGluCl1 T12 RNA. The format is cell-based, Rhipicephalus sanguineus. Conditions: for channel activation / current in response (qualitative): RsGluCl1 expressed in Xenopus oocytes. The protocol:
as §1
Recordings were made at room temperature in modified ND-96 consisting of (mM: NaCl 96, MgCl2 1, CaCl2 0.1, BaCl2 3.5, HEPES 5, pH 7.5. Oocytes were voltage clamped using a Dagan CA1 two microelectrode amplifier (Dagan Corporation, Minneapolis, Minn.) interfaced to a Macintosh 7100/80 computer. The current passing electrode was filled with 0.7 M KCl, 1.7 M KCitrate, and the voltage recording electrode was filled with 1 M KCl. Throughout the experiment oocytes were superfused with modified ND-96 (control solution) or with ND-96 containing potential channel activators and blockers at a rate of approximately 3 ml/min. Data were acquired at 100 Hz and filtered at 33.3 Hz using Pulse software from HEKA Elektronik (Lambrecht, Germany). All recordings were performed from a holding potential of either 0 or −30 mV.
cRNA was synthesized from the RsGluCl 1S clone T12 and expressed in Xenopus oocytes. The channel encoded by RsGluCl-1 is a glutamate-gated chloride channel activated by IVM-PO4.

For `CC[C@H](C)[C@H]1O[C@]2(CC[C@@H]1C)C[C@@H]1C[C@@H](C/C=C(\C)[C@@H](O[C@H]3C[C@H](OC)[C@@H](O[C@H]4C[C@H](OC)[C@@H](O)[C@H](C)O4)[C@H](C)O3)[C@@H](C)/C=C/C=C3\CO[C@@H]4[C@H](O)C(C)=C[C@@H](C(=O)O1)[C@]34O)O2` [ivermectin, 22,23-dihydro-avermectin B1a], the “concentration at which current activation was maximal” value in experiment [1] (RsGluCl2 expressed in Xenopus oocytes, FIG. 11) is around 1 µM. In addition, the “current produced on application” value in experiment [2] (100 nM, compared with the glutamate-activated current, RsGluCl1 T12 in Xenopus oocytes) is reported as “produces a similar although non-inactivating current”.
For the compound ivermectin phosphate, the entries for the “channel activation / current in response (qualitative)” value in experiment [1] and in experiment [2] were “exhibit a current” and “activated”, respectively.
Take `N[C@@H](CCC(=O)O)C(=O)O` [glutamate]: the “channel activation / current in response (qualitative)” value in experiment [1] was “failed to activate a current”; in experiment [2], “exhibits a current”. For the same compound, in experiment [2] (RsGluCl1 T12 RNA in Xenopus oocytes, FIG. 10), the “concentration at which current activation was maximal” value was 10 µM.
